Experimental data reported in patent publication US9725442B2, “Heterocyclic derivative having PGD2 receptor antagonist activity” (Shionogi & Co., Ltd., priority 2011, dated 2017).
Read-outs that look alike come from different tables or passages of the source.

Columns and labels:
Human DP1 receptor = Human DP1 receptor (Homo sapiens (Human), UniProt Q13258); assay: Human DP1 inhibitory activity in DP1-expressing cell (PGD2-induced cAMP); assay type: cell-based; details: category of cAMP IC50, human DP1 receptor expressing Jurkut cell
Sequence of Human DP1 receptor (Q13258 whole entry): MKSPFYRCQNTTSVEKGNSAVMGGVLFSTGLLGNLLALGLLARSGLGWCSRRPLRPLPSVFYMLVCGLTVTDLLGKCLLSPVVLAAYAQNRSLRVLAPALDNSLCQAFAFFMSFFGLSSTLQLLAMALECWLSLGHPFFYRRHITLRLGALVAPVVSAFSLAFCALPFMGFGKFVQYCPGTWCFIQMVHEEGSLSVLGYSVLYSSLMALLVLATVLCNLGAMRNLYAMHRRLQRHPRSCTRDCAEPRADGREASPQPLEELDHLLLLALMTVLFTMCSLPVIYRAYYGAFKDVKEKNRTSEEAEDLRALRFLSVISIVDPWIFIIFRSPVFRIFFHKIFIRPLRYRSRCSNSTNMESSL
Description: Compounds were categorized as AA (cAMP is less than 100 nM) and A (cAMP is more than 100 nM and less than 5000 nM) as shown in Table 99 and 100.

CRTH2 = CRTH2 (Homo sapiens (Human), UniProt Q9Y5Y4); assay: CRTH2 receptor binding inhibitory activity ([3H]-PGD2 displacement, membranes of CRTH2-expressing K562 cell); details: [3H]-PGD2 displacement, membrane of CRTH2-expressing K562 cell, read-out: Ki
Sequence of CRTH2 (Q9Y5Y4 whole entry): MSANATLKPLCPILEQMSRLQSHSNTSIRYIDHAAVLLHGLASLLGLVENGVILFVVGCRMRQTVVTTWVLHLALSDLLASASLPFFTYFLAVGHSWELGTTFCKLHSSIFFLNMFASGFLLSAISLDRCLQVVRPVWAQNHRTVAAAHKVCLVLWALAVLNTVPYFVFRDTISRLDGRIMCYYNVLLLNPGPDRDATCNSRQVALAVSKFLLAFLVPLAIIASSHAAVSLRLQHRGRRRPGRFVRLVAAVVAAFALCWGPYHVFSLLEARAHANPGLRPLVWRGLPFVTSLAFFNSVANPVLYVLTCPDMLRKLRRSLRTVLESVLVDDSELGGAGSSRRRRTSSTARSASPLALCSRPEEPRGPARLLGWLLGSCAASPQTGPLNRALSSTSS
Description: Cell membrane was prepared from CRTH2-expressing K562 cell. The cell membrane (20 μg/well) was mixed with reaction buffer (50 mM Tris/HCl, pH 7.4, 10 mM MgCl2). Then, [^3H]-PGD2 was added to the mixture and incubated for 60 min at room temperature. […] Then, the mixture was filtrated with glass paper immediately. The filter paper was washed several times and radio activity on the filter was measured. Specific binding was defined as difference between total and non-specific binding (radio activity with 10 μM PGD2). Ki values for each compound were calculated from displacement curve.

[1] = CRTH2 receptor binding, categorized AAAA/AAA

Row | SMILES | IC50 (Human DP1 receptor) | Ki (CRTH2; [1]) | Ki (CRTH2)
1 | Cc1ccc2c(CC(=O)O)nn([C@@H]3C[C@H](C)N(S(=O)(=O)c4ccc(OC(C)C)cc4)C3)c2c1 [Compound I-94] | < 100 nM | < 100 nM | 
2 | CC(C)Oc1ccc(S(=O)(=O)N2C[C@H](n3nc(CC(=O)O)c4ccc(Cl)cc43)C[C@@H]2C)cc1 [Compound I-95] | < 100 nM | < 100 nM | 
3 | C[C@@H]1CN(S(=O)(=O)c2ccc(OC(F)F)cc2)C[C@@H]1n1nc(CC(=O)O)c2ccccc21 [Compound I-98] | < 100 nM | < 100 nM | 
4 | CC(C)Oc1ccc(S(=O)(=O)N2C[C@@H](C)[C@@H](n3nc(CC(=O)O)c4ccccc43)C2)cn1 [Compound I-99] | < 100 nM | < 100 nM | 
5 | CC(C)Oc1ccc(S(=O)(=O)N2C[C@@H](C)[C@@H](n3nc(/C=C/C(=O)O)c4ccc(F)cc43)C2)cc1 [Compound I-100] | 100 to 5000 nM | < 100 nM | 
6 | CC(C)Oc1ccc(S(=O)(=O)N2C[C@@H](C)[C@@H](n3nc(CCC(=O)O)c4ccc(F)cc43)C2)cc1 [Compound I-101] | 100 to 5000 nM | 100 to 5000 nM | 
7 | C=C[C@H]1C[C@@H](n2nc(CC(=O)O)c3ccc(F)cc32)CN1S(=O)(=O)c1ccc(OC(C)C)cc1 [Compound I-102] | < 100 nM | < 100 nM | 
8 | CC[C@H]1C[C@@H](n2nc(CC(=O)O)c3ccc(F)cc32)CN1S(=O)(=O)c1ccc(OC(C)C)cc1 [Compound I-103] | < 100 nM | < 100 nM | 
9 | CC(C)Oc1ccc(S(=O)(=O)N2C[C@H](n3nc(CC(=O)O)c4ccc(F)cc43)C[C@]2(C)C#N)cc1 [Compound I-104] | < 100 nM | < 100 nM | 16 nM
10 | CC(C)Oc1ccc(S(=O)(=O)N2C[C@H](n3nc(CC(=O)O)c4ccc(F)cc43)C[C@@]2(C)C#N)cc1 [Compound I-105] | < 100 nM | < 100 nM | 
11 | CCOc1ccc(S(=O)(=O)N2C[C@@H](C)[C@@H](n3nc(CC(=O)O)c4ccc(F)cc43)C2)cc1 [Compound I-106] | < 100 nM | < 100 nM | 
12 | C[C@@H]1CN(S(=O)(=O)c2ccc(OC(F)F)cc2)C[C@@H]1n1nc(CC(=O)O)c2ccc(F)cc21 [Compound I-107] | < 100 nM | < 100 nM | 
13 | CCOc1ccc(S(=O)(=O)N2C[C@@H](C)[C@@H](n3nc(CC(=O)O)c4ccc(F)cc43)C2)cn1 [Compound I-108] | < 100 nM | < 100 nM | 
14 | CCOc1ccc(S(=O)(=O)N2C[C@@H](C)[C@@H](n3nc(CC(=O)O)c4ccc(C)cc43)C2)cc1 [Compound I-109] | < 100 nM | < 100 nM | 
15 | Cc1ccc2c(CC(=O)O)nn([C@H]3CN(S(=O)(=O)c4ccc(OC(F)F)cc4)C[C@H]3C)c2c1 [Compound I-110] | < 100 nM | < 100 nM | 
16 | CCOc1ccc(S(=O)(=O)N2C[C@@H](C)[C@@H](n3nc(CC(=O)O)c4ccc(C)cc43)C2)cn1 [Compound I-111] | < 100 nM | < 100 nM | 
17 | COc1ccc(S(=O)(=O)N2C[C@@H](C)[C@@H](n3nc(CC(=O)O)c4ccc(F)cc43)C2)cc1 [Compound I-112] | < 100 nM | < 100 nM | 
18 | C[C@@H]1CN(S(=O)(=O)c2ccc(C3CC3)cc2)C[C@@H]1n1nc(CC(=O)O)c2ccc(F)cc21 [Compound I-113] | < 100 nM | < 100 nM | 17 nM
19 | Cc1ccc2c(CC(=O)O)nn([C@H]3CN(S(=O)(=O)c4ccc(OC(C)C)cc4)C[C@@H]3C)c2c1 [Compound I-114] | < 100 nM | < 100 nM | 
20 | CC(C)Oc1ccc(S(=O)(=O)N2C[C@H](C)[C@@H](n3nc(CC(=O)O)c4ccccc43)C2)cc1 [Compound I-115] | < 100 nM | < 100 nM | 
21 | COc1ccc(S(=O)(=O)N2C[C@@H](C)[C@@H](n3nc(CC(=O)O)c4ccc(F)cc43)C2)cn1 [Compound I-116] | 100 to 5000 nM | < 100 nM | 
22 | Cc1ccc(S(=O)(=O)N2C[C@@H](C)[C@@H](n3nc(CC(=O)O)c4ccc(F)cc43)C2)cc1 [Compound I-117] | 100 to 5000 nM | < 100 nM | 1.6 nM

Row | SMILES | IC50 (Human DP1 receptor) | Ki (CRTH2; [1]) | Ki (CRTH2)
23 | CCc1ccc(S(=O)(=O)N2C[C@@H](C)[C@@H](n3nc(CC(=O)O)c4ccc(F)cc43)C2)cc1 [Compound I-118] | < 100 nM | < 100 nM | 
24 | C[C@@H]1CN(S(=O)(=O)c2ccc(C(F)(F)F)cc2)C[C@@H]1n1nc(CC(=O)O)c2ccc(F)cc21 [Compound I-119] | 100 to 5000 nM | < 100 nM | 
25 | C[C@@H]1CN(S(=O)(=O)c2ccc(OC(F)(F)F)cc2)C[C@@H]1n1nc(CC(=O)O)c2ccc(F)cc21 [Compound I-120] | < 100 nM | < 100 nM | 
26 | C[C@@H]1CN(S(=O)(=O)c2ccccc2Cl)C[C@@H]1n1nc(CC(=O)O)c2ccc(F)cc21 [Compound I-121] | 100 to 5000 nM | < 100 nM | 
27 | C[C@@H]1CN(S(=O)(=O)c2cccc(Cl)c2)C[C@@H]1n1nc(CC(=O)O)c2ccc(F)cc21 [Compound I-122] | 100 to 5000 nM | < 100 nM | 2.5 nM
28 | C[C@@H]1CN(S(=O)(=O)c2ccccc2C#N)C[C@@H]1n1nc(CC(=O)O)c2ccc(F)cc21 [Compound I-124] | 100 to 5000 nM | < 100 nM | 
29 | CCOc1cc(F)c(S(=O)(=O)N2C[C@@H](C)[C@@H](n3nc(CC(=O)O)c4ccc(F)cc43)C2)c(F)c1 [Compound I-125] | 100 to 5000 nM | < 100 nM | 
30 | CCc1ccc(S(=O)(=O)N2C[C@@H](C)[C@@H](n3nc(CC(=O)O)c4ccc(C(F)(F)F)cc43)C2)cc1 [Compound I-126] | < 100 nM | < 100 nM | 
31 | C[C@@H]1CN(S(=O)(=O)c2ccc(OC(F)F)cc2)C[C@@H]1n1nc(CC(=O)O)c2ccc(C(F)(F)F)cc21 [Compound I-127] | < 100 nM | < 100 nM | 
32 | COc1ccc(S(=O)(=O)N2C[C@@H](C)[C@@H](n3nc(CC(=O)O)c4ccc(C(F)(F)F)cc43)C2)cc1 [Compound I-128] | < 100 nM | < 100 nM | 
33 | CCOc1ccc(S(=O)(=O)N2C[C@@H](C)[C@@H](n3nc(CC(=O)O)c4ccc(C(F)(F)F)cc43)C2)cc1 [Compound I-129] | < 100 nM | < 100 nM | 
34 | CCOc1ccc(S(=O)(=O)N2C[C@@H](C)[C@@H](n3nc(CC(=O)O)c4ccc(C(F)(F)F)cc43)C2)cn1 [Compound I-132] | < 100 nM | < 100 nM | 
35 | CC(C)Oc1ccc(S(=O)(=O)N2C[C@H](n3nc(CC(=O)O)c4cccc(F)c43)C[C@@H]2C(F)F)cc1 [Compound I-133] | 100 to 5000 nM | 100 to 5000 nM | 
36 | C[C@@H]1CN(S(=O)(=O)c2ccc(OC(F)F)cc2)C[C@@H]1n1nc(CC(=O)O)c2ccc(Cl)cc21 [Compound I-134] | < 100 nM | < 100 nM | 
37 | CC(C)Oc1ccc(S(=O)(=O)N2C[C@@H](C)[C@@H](n3nc(CC(=O)O)c4ccc(Cl)cc43)C2)cc1 [Compound I-135] | < 100 nM | < 100 nM | 
38 | C[C@H]1CN(S(=O)(=O)c2ccc(OC(F)F)cc2)C[C@H]1n1nc(CC(=O)O)c2ccc(F)cc21 [Compound I-136] | 100 to 5000 nM | 100 to 5000 nM | 
39 | CCOc1ccc(S(=O)(=O)N2C[C@@H](C)[C@@H](n3nc(CC(=O)O)c4ccc(Cl)cc43)C2)cc1 [Compound I-137] | < 100 nM | < 100 nM | 
40 | CC(C)Oc1ccc(S(=O)(=O)N2C[C@@H](C)[C@@H](n3nc(CC(=O)NS(C)(=O)=O)c4ccc(F)cc43)C2)cc1 [Compound I-138] | 100 to 5000 nM | < 100 nM | 65 nM
41 | CC(C)Oc1ccc(S(=O)(=O)N2C[C@@H](C)[C@@H](n3nc(CC(=O)NC#N)c4ccc(F)cc43)C2)cc1 [Compound I-139] | < 100 nM | < 100 nM | 32 nM
42 | COc1ccc(S(=O)(=O)N2C[C@@H](C)[C@@H](n3nc(CC(=O)O)c4ccc(Cl)cc43)C2)cc1 [Compound I-140] | < 100 nM | < 100 nM | 
43 | CCc1ccc(S(=O)(=O)N2C[C@@H](C)[C@@H](n3nc(CC(=O)O)c4ccc(Cl)cc43)C2)cc1 [Compound I-141] | < 100 nM | < 100 nM | 
44 | CCOc1ccc(S(=O)(=O)N2C[C@@H](C)[C@@H](n3nc(CC(=O)O)c4ccc(Cl)cc43)C2)cn1 [Compound I-143] | < 100 nM | < 100 nM | 
